Experimental data from article PMC11620517, “Novel hydrazone compounds with broad-spectrum antiplasmodial activity and synergistic interactions with antimalarial drugs” (Antimicrobial Agents and Chemotherapy, 2024).
Like-named read-outs stand apart in the source and are kept apart here.

What was measured:
human GST = target: T1, human GST (Homo sapiens, UniProt P08263); assay: GST inhibition assay (CDNB); assay type: biochemical; conditions: 6-point 1–50 µM
T1 construct: The open reading frames encoding PfGST, PbGST, and hGST were gene-synthesized; TEV cleavage site (C); Avitag (C); purchased InterRayBio, LLC; host or cells: E. coli BL21 (DE3)
T1 sequence (P08263 1-222): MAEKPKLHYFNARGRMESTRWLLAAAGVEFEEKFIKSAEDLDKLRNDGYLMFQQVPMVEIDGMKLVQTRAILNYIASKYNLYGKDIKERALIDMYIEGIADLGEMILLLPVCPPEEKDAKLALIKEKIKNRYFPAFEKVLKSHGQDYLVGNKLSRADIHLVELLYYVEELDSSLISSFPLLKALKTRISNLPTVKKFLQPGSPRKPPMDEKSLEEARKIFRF
Method in brief: (§1)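 Recombinant GST (0.35 mg/mL) with 1 mM CDNB in 100 mM HEPES was preincubated with inhibitor (six concentrations, 1–50 µM; 0.5% DMSO). After 15 min, 1 mM GSH started the reaction, and A340 was followed for 1 h. Slopes were converted to µmol/min using ε340 = 9.6 mM^–1 cm^–1.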

[1] = target: T2, recombinant P. falciparum GST (Plasmodium falciparum, UniProt Q8ILQ7); assay: GST inhibition assay (CDNB); assay type: biochemical; conditions: 6-point 1–50 µM
T2 construct: The open reading frames encoding PfGST, PbGST, and hGST were gene-synthesized; TEV cleavage site (C); Avitag (C); purchased InterRayBio, LLC; host or cells: E. coli BL21 (DE3)
T2 sequence (Q8ILQ7 1-211): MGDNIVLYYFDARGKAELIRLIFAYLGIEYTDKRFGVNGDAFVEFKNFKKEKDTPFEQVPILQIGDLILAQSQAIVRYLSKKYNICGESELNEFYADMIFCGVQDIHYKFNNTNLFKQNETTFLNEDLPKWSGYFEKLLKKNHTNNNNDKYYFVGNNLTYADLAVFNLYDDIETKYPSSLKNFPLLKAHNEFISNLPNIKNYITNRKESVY
Method in brief: as §1

[2] = tested on: recombinant P. berghei GST; assay: GST inhibition assay (CDNB); assay type: biochemical, Plasmodium berghei; conditions: 6-point 1–50 µM
Method in brief: as §1

[3] = tested on: P. cynomolgi hypnozoites and hepatic schizonts; assay: P. cynomolgi liver-stage inhibition assay; assay type: cell-based, Plasmodium cynomolgi; conditions: Plasmodium cynomolgi
Method in brief: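 Primary primate hepatocytes were infected with P. cynomolgi B strain sporozoites and treated with 8-point threefold dilutions (100 µM to 5 nM) for 4 days, either prophylactically from sporozoite addition or radical-cure from day 4 post-inoculation. Hypnozoites and schizonts counted by high-content imaging and normalized to DMSO; IC50 from four-parameter logistic fit.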

[4] = tested on: primary primate hepatocytes; assay: hepatocyte toxicity in the P. cynomolgi liver-stage assay; assay type: cell-based
[5] = tested on: P. falciparum oocyst formation in Anopheles stephensi mosquitoes; assay: P. falciparum oocyst inhibition assay (SMFA); assay type: in vivo, Plasmodium falciparum; conditions: for Median (oocysts) / Median I % / Prevalence % / Prevalence I %: pooled from two representative experiments
Protocol: As previously described, P. falciparum infections were performed using SMFA with NF54 gametocyte cultures diluted to 0.3% stage V gametocytemia ([62]). Infected blood (O+ human 45% hematocrit in serum) was offered to mosquitoes for 30 minutes, and engorged mosquitoes were maintained on a 10% corn syrup solution supplemented by four concentrations of CB compounds (1, 2.5, 5, and 10 µM) at […] ([63]), with DMSO serving as a control. Eight days post-infection, mosquito midguts were dissected and stained with 0.2% mercurochrome for 30 minutes, and oocysts were quantified under a light microscope ([63]).

[6] = tested on: P. berghei ookinete development (Ookluc parasites); assay: P. berghei ookinete luciferase inhibition assay; assay type: cell-based, Plasmodium berghei; conditions: Plasmodium berghei, 24 h, read-out: IC50 (ookinete development)

Question: With O=C(N/N=C/c1c(O)ccc2ccccc12)c1cc([N+](=O)[O-])cc([N+](=O)[O-])c1 [CB-61] as the compound, how does the GST inhibition (human GST) read?
Answer: The GST inhibition was “did not inhibit”.

Question: And the GST inhibition [1]?
Answer: Its GST inhibition is “did not inhibit”.

Question: And the GST inhibition [2]?
Answer: The GST inhibition was “did not inhibit”.

Question: What about the IC50 ([3]; read-out: Hypnozoite IC50) of the same compound?
Answer: Its IC50 is over 10 µM.

Question: And the IC50 ([3]; read-out: Schizont IC50)?
Answer: Its IC50 is over 10 µM.

Question: What about the IC50 ([3]; read-out: Total parasite IC50) of the same compound?
Answer: Its IC50 is over 10 µM.

Question: And the Toxicity [4]?
Answer: Its Toxicity is over 10 µM.

Question: What about the “Median oocyst #” value ([5]; 1 μM compound) of the same compound?
Answer: The value was 1.

Question: And the “Mean oocyst # excluding zeros (Range)” value ([5]; 1 μM compound, P. falciparum midgut infection in An. stephensi mosquitoes)?
Answer: Its value is 30 (0-109).

Question: What about the Prevalence ([5]; 1 μM compound, infection prevalence in mosquitoes) of the same compound?
Answer: The Prevalence was 60.

Question: And the “Median (oocysts)” value ([5]; 1 µM)?
Answer: Its value is 1.

Question: What about the “Median I %” value ([5]; 1 µM) of the same compound?
Answer: The value was 83%.

Question: And the Prevalence % ([5]; 1 µM)?
Answer: The Prevalence % was 59%.

Question: What about the “Prevalence I %” value ([5]; 1 µM) of the same compound?
Answer: Its value is 31%.

Question: And the “Median oocyst #” value ([5]; 2.5 μM compound)?
Answer: The value was 1.

Question: And the “Mean oocyst # excluding zeros (Range)” value ([5]; 2.5 μM compound, P. falciparum midgut infection in An. stephensi mosquitoes)?
Answer: The value was 20 (0-65).

Question: And the Prevalence ([5]; 2.5 μM compound, infection prevalence in mosquitoes)?
Answer: The Prevalence was 55.

Question: And the “Median (oocysts)” value ([5]; 2.5 µM)?
Answer: Its value is 1.

Question: And the “Median I %” value ([5]; 2.5 µM)?
Answer: Its value is 83%.

Question: What about the Prevalence % ([5]; 2.5 µM) of the same compound?
Answer: Its Prevalence % is 55%.

Question: And the “Prevalence I %” value ([5]; 2.5 µM)?
Answer: Its value is 36%.

Question: What about the “% inhibition (median)” value ([5]; 2.5 μM, single experiments) of the same compound?
Answer: Its value is 62%.

Question: What about the “Median oocyst #” value ([5]; 5 μM compound) of the same compound?
Answer: The value was 1.

Question: And the “Mean oocyst # excluding zeros (Range)” value ([5]; 5 μM compound, P. falciparum midgut infection in An. stephensi mosquitoes)?
Answer: The value was 20 (0-68).

Question: What about the Prevalence ([5]; 5 μM compound, infection prevalence in mosquitoes) of the same compound?
Answer: The Prevalence was 55.

Question: And the “Median (oocysts)” value ([5]; 5 µM)?
Answer: Its value is 1.

Question: And the “Median I %” value ([5]; 5 µM)?
Answer: Its value is 83%.

Question: What about the Prevalence % ([5]; 5 µM) of the same compound?
Answer: Its Prevalence % is 55%.

Question: And the “Prevalence I %” value ([5]; 5 µM)?
Answer: The value was 36%.

Question: What about the “% inhibition (median)” value ([5]; 5 μM, single experiments) of the same compound?
Answer: Its value is 58%.

Question: And the “Mean oocyst # excluding zeros (Range)” value ([5]; 7.5 μM, single experiments)?
Answer: The value was 15 (0-53).

Question: And the “Median oocyst #” value ([5]; 7.5 μM, single experiments)?
Answer: Its value is 2.5.

Question: And the Prevalence ([5]; 7.5 μM, single experiments)?
Answer: The Prevalence was 75.

Question: And the “Median oocyst #” value ([5]; 10 μM compound)?
Answer: Its value is 0.

Question: What about the “Mean oocyst # excluding zeros (Range)” value ([5]; 10 μM compound, P. falciparum midgut infection in An. stephensi mosquitoes) of the same compound?
Answer: The value was 7 (0-30).

Question: And the Prevalence ([5]; 10 μM compound, infection prevalence in mosquitoes)?
Answer: Its Prevalence is 46.

Question: What about the “Median (oocysts)” value ([5]; 10 µM) of the same compound?
Answer: Its value is 0.

Question: What about the “Median I %” value ([5]; 10 µM) of the same compound?
Answer: Its value is 100%.

Question: And the Prevalence % ([5]; 10 µM)?
Answer: The Prevalence % was 46%.

Question: And the “Prevalence I %” value ([5]; 10 µM)?
Answer: The value was 47%.

Question: And the “Mean oocyst # excluding zeros (Range)” value ([5]; 25 μM, single experiments)?
Answer: The value was 1 (0-2).

Question: What about the “Median oocyst #” value ([5]; 25 μM, single experiments) of the same compound?
Answer: Its value is 0.

Question: What about the Prevalence ([5]; 25 μM, single experiments) of the same compound?
Answer: The Prevalence was 18.

Question: And the “Mean oocyst # excluding zeros (Range)” value ([5]; 50 μM, single experiments)?
Answer: The value was 1 (0-2).

Question: And the “Median oocyst #” value ([5]; 50 μM, single experiments)?
Answer: The value was 0.

Question: And the Prevalence ([5]; 50 μM, single experiments)?
Answer: Its Prevalence is 15.

Question: And the oocyst formation inhibition ([5]; 1 to 10 µM, midguts dissected 8 days after feeding)?
Answer: Its oocyst formation inhibition is “inhibited midgut oocyst formation in a dose-dependent manner”.

Question: What about the inhibition at 2.5 µM ([5]; read-out: % inhibition (mean), 2.5 μM compound, oocyst number vs DMSO control) of the same compound?
Answer: The inhibition at 2.5 µM was 23%.

Question: And the inhibition at 5 µM ([5]; read-out: % inhibition (mean), 5 μM compound, oocyst number vs DMSO control)?
Answer: Its inhibition at 5 µM is 23%.

Question: And the inhibition at 7.5 µM ([5]; read-out: % inhibition (mean), 7.5 μM, single experiments)?
Answer: Its inhibition at 7.5 µM is 29%.

Question: What about the inhibition at 10 µM ([5]; read-out: % inhibition (mean), 10 μM compound, oocyst number vs DMSO control) of the same compound?
Answer: The inhibition at 10 µM was 72%.

Question: What about the inhibition at 25 µM ([5]; read-out: % inhibition (mean), 25 μM, single experiments) of the same compound?
Answer: The inhibition at 25 µM was 48%.

Question: And the inhibition at 50 µM ([5]; read-out: % inhibition (mean), 50 μM, single experiments)?
Answer: The inhibition at 50 µM was 49%.

Question: And the inhibition at 1 µM ([5]; read-out: % inhibition (median), 1 μM compound, oocyst number vs DMSO control)?
Answer: Its inhibition at 1 µM is 83%.

Question: And the inhibition at 2.5 µM ([5]; read-out: % inhibition (median), 2.5 μM compound, oocyst number vs DMSO control)?
Answer: The inhibition at 2.5 µM was 83%.

Question: And the inhibition at 5 µM ([5]; read-out: % inhibition (median), 5 μM compound, oocyst number vs DMSO control)?
Answer: The inhibition at 5 µM was 83%.

Question: What about the inhibition at 7.5 µM ([5]; read-out: % inhibition (median), 7.5 μM, single experiments) of the same compound?
Answer: The inhibition at 7.5 µM was 79%.

Question: And the inhibition at 10 µM ([5]; read-out: % inhibition (median), 10 μM compound, oocyst number vs DMSO control)?
Answer: The inhibition at 10 µM was 100%.

Question: What about the inhibition at 25 µM ([5]; read-out: % inhibition (median), 25 μM, single experiments) of the same compound?
Answer: Its inhibition at 25 µM is 100%.

Question: And the inhibition at 50 µM ([5]; read-out: % inhibition (median), 50 μM, single experiments)?
Answer: Its inhibition at 50 µM is 100%.

Question: And the inhibition at 1 µM ([5]; read-out: % inhibition (prevalence), 1 μM compound, vs DMSO control)?
Answer: The inhibition at 1 µM was 31%.

Question: What about the inhibition at 2.5 µM ([5]; read-out: % inhibition (prevalence), 2.5 μM compound, vs DMSO control) of the same compound?
Answer: Its inhibition at 2.5 µM is 36%.

Question: What about the inhibition at 5 µM ([5]; read-out: % inhibition (prevalence), 5 μM compound, vs DMSO control) of the same compound?
Answer: The inhibition at 5 µM was 36%.

Question: And the inhibition at 7.5 µM ([5]; read-out: % inhibition (prevalence), 7.5 μM, single experiments)?
Answer: Its inhibition at 7.5 µM is 21%.

Question: And the inhibition at 10 µM ([5]; read-out: % inhibition (prevalence), 10 μM compound, vs DMSO control)?
Answer: The inhibition at 10 µM was 47%.

Question: And the inhibition at 25 µM ([5]; read-out: % inhibition (prevalence), 25 μM, single experiments)?
Answer: The inhibition at 25 µM was 74%.

Question: And the inhibition at 50 µM ([5]; read-out: % inhibition (prevalence), 50 μM, single experiments)?
Answer: The inhibition at 50 µM was 78%.

Question: What about the IC50 [6] of the same compound?
Answer: Its IC50 is 29.5 µM.
